Laboratory results taken from patent publication US20220389515A1, “USE OF BIOMARKERS TO PREDICT CLINICAL SENSITIVITY TO 2-(4-CHLOROPHENYL)-N-((2-(2,6-DIOXOPIPERIDIN-3-YL)-1-OXOISOINDOLIN-5-YL)METHYL)-2,2-DIFLUOROACETAMIDE” (priority 2019, published 2022).
Entries after “also recorded” stand apart in the source; their conditions may differ.

Legend:
[1] = target: T1, cereblon to GSPT1 (Homo sapiens, UniProt P15170+Q96SW2); assay: Cereblon binding assay with cell extracts (anti-HA immunoprecipitation), GSPT1; details: wild-type FLAG-HA-CRBN; compound added directly into the binding assay
T1 construct: expressed in transfected cells; host or cells: 293FT CRBN-/- cells (transient transfection; cell extracts, anti-HA immunoprecipitation)
Description: (§1) FIG. 3A illustrates FLAG-HA tagged cereblon wild-type (FLAG-HA-CRBN) or Y384A/W386A mutant (FLAG-HA-YWAA) produced in 293FT CRBN−/− cells was used to capture V5 tagged GSPT1 (GSPT1-V5) and V5 tagged IKZF1 (IKZF1-V5) transiently expressed in 293FT CRBN−/− cells. […] FIG. 3B illustrates the surface representation of GSPT1 in complex with cereblon, DDB1 and Compound D, with DDB1 shown in purple, cereblon in blue, and GSPT1 in orange. The position of Compound D is shown with a white arrow. FIG. 3C illustrates the Fo-Fc omit electron density (green mesh) for Compound D (yellow sticks) contoured at 3.06. […] Hydrogen bond interactions between cereblon and the GPST1 β-hairpin are shown as yellow dashes. FIG. 3E illustrates details of the binding interface between cereblon and GSPT1. Compound D is represented as yellow sticks. Predicted polar interactions between Compound D and cereblon are shown as yellow dashes. FIG. 3F illustrates the immunoblot analysis of U937 parental cells or cells stably expressing HA-GSPT1-G575N. Cells were treated with DMSO or Compound D at the indicated concentrations. FIGS. 3G and 311 illustrate the immunoblot analysis (left panel) and cell proliferation (right panel) of MOLM-13 (FIG. 3G) and OCI-AML2 (FIG. 311) parental cells and cells stably expressing HA tagged GSPT1-G575N. Cells were treated with DMSO or Compound D at indicated concentrations.

[2] = target: T2, cereblon to GSPT1 (Homo sapiens, UniProt P15170+Q96SW2, W386A/Y384A); assay: as above; details: FLAG-HA-YWAA mutant
T2 construct: expressed in transfected cells; host or cells: 293FT CRBN-/- cells (transient transfection; cell extracts, anti-HA immunoprecipitation)
Description: as §1

[3] = system: U937 and OCI-AML2 cells; assay: Flow cytometry-based CRISPR competition assay (RFP+/GFP+ ratio); type: cell-based, human
Experimental: To investigate the role of the mTOR signaling pathway in mediating Compound D sensitivity, a CRISPR competition assay was performed (see FIG. 6A). U937 cells stably expressing Cas9 were infected with a lentiviral vector expressing GFP and non-targeting sgRNA (sgNT), or lentiviral vectors expressing RFP and non-targeting sgRNA (sgNT), or lentiviral vectors expressing RFP and sgRNAs targeting MTOR, RICTOR or RAPTOR. Cells were then treated with DMSO or 100 nM Compound D. The RFP+/GFP+ ratio was monitored by flow cytometry every 2-3 days thereafter.
Next, CRISPR competition assays were conducted in U937 and OCI-AML2 cells as described above. Specifically, U937 cells stably expressing Cas9 were infected with lentiviral vector constitutively expressing GFP and non-targeting sgRNA (sgNT), or with lentiviral vectors constitutively expressing RFP and non-targeting sgRNA (sgNT) or sgRNAs targeting TSC1 or TSC2. Three days after infection, RFP and GFP cells were mixed at a 1:1 ratio and treated with DMSO, 1 μM Compound D, or 10 μM Compound D. The change of RFP+/GFP+ ratio was monitored by flow cytometry every 2-3 days thereafter. Similarly, OCI-AML2 cells stably expressing Cas9 were infected with lentiviral vector constitutively expressing GFP and non-targeting sgRNA (sgNT), or with lentiviral vectors constitutively expressing RFP and non-targeting sgRNA (sgNT) or sgRNAs targeting TSC1 or TSC2. Three days after infection, RFP and GFP cells were mixed at a 1:1 ratio and treated with DMSO, 0.1 μM Compound D, or […] Compound D. The change of RFP+/GFP+ ratio was monitored by flow cytometry every 2-3 days thereafter.
A CRISPR competition assay was performed as shown in the upper panel of FIG. 5A, and similarly to the assay described above. U937 cells stably expressing Cas9 were infected with a lentiviral vector constitutively expressing GFP and non-targeting sgRNA (sgNT), or with lentiviral vectors constitutively expressing RFP and non-targeting sgRNA (sgNT) or sgRNAs targeting GCN2. On day 2, RFP and GFP cells were mixed at a 1:1 ratio and treated with DMSO or 100 nM Compound D. The change of RFP+/GFP+ ratio was monitored by flow cytometry every 2-3 days thereafter.
Next, CRISPR competition assays were conducted in U937 and OCI-AML2 cells as described above. Specifically, U937 and OCI-AML2 cell lines were transduced with plenti-EF1á-Cas9-P2A-Blast, followed by Blasticidin selection to establish Cas9-expressing cell lines. U937-Cas9 and OCI-AML2-Cas9 cells were then transduced with pRSG17-U6-sgNT-1-UbiC-TagGFP2-2A-Puro, or pRSG16-U6-UbiC-TagRFP-2A-Puro vectors expressing sgNT-1, sgNC-1, sgNC-8 or gene-specific sgRNAs. Transduced cells were washed with 1×PBS 72 hours post-transduction. Cells were assessed for transduction via RFP or GFP fluorescence reporter expression. Once fluorescence reporter expression was confirmed, RFP- and GFP-transduced cells were mixed at a 1:1 ratio and seeded in 2 ml culture media per well in 12-well tissue culture plates at a cell density of 200,000 cells per mL, and treated with DMSO or an appropriate dose of Compound. Remaining cells underwent puromycin selection for 3-7 days and were harvested for immunoblot analysis to confirm gene knock-out. After seeding cells for culture in 12-well plates, 100 iL cell culture per well was removed for flow cytometric analysis as the baseline “Day 0” RFP- and GFP-positive percentages in each well. […]

T1 sequence (Q96SW2 whole entry): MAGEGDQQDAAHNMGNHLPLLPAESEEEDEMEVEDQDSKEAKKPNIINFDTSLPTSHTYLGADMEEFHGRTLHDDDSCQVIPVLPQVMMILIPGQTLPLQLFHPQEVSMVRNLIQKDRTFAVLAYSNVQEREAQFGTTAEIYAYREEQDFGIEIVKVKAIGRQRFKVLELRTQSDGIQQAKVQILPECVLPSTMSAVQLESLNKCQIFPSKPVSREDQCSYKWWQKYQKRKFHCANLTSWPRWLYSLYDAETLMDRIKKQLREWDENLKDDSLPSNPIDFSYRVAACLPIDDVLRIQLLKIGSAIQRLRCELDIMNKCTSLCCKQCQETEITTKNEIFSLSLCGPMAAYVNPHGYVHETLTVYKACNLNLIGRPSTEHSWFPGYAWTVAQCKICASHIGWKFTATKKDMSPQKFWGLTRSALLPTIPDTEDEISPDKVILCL
T1 sequence (P15170 1-637 isoform P15170-3): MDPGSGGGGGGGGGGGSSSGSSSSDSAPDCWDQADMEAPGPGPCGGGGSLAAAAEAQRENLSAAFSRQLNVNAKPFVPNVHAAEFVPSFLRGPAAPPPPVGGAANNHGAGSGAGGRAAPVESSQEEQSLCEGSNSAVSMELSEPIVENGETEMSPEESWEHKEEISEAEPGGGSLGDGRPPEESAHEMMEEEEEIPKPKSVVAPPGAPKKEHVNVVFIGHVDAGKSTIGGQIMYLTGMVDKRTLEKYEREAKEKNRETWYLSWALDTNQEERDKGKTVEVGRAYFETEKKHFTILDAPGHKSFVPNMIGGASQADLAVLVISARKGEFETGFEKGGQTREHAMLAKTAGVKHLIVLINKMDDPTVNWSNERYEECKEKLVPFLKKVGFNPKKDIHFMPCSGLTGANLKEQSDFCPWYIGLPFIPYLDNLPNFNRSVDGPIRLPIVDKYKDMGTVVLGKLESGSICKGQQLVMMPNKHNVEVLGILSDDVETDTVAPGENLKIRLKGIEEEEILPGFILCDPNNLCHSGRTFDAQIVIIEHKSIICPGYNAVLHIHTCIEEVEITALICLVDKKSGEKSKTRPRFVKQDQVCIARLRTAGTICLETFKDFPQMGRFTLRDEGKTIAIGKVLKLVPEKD
T2 sequence (Q96SW2 whole entry Y384A/W386A): as the sequence (Q96SW2 whole entry) above, with Y384A, W386A counted along it
T2 sequence (P15170 1-637 isoform P15170-3, stated change not applied): as the sequence (P15170 1-637 isoform P15170-3) above

Question: Which “binding of cereblon to GSPT1” value [1] does the source give for `O=C1CCC(N2Cc3cc(CNC(=O)C(F)(F)c4ccc(Cl)cc4)ccc3C2=O)C(=O)N1` (stereo not shown) [Compound D, 2-(4-chlorophenyl)-N-((2-(2,6-dioxopiperidin-3-yl)-1-oxoisoindolin-5-yl)methyl)-2,2-difluoroacetamide] here?
Answer: promoted the binding of cereblon to GSPT1

Question: And the “binding of cereblon mutant Y384A and W386A to GSPT1” value [2]?
Answer: completely abolished the binding of cereblon

Question: What about the “response after TSC1 or TSC2 knockout” value ([3]; U937 1 μM or 10 μM, OCI-AML2 0.1 μM or 1 μM) of the same compound?
Answer: conferred a growth advantage in the presence of, but not in the absence of, Compound D; also recorded: increased resistance to Compound D

Question: And the “growth inhibition after loss of GCN1, GCN2, ATF4 or DDIT4” value ([3]; U937 (10 μM) and OCI-AML2)?
Answer: protected the cells against Compound D-induced growth inhibition

Question: What about the “response of cells lacking GCN2” value ([3]; U937, 100 nM) of the same compound?
Answer: resistant to Compound D

Question: What about the “sensitivity after knockout of mTOR, Raptor and Rictor” value ([3]; U937, 100 nM) of the same compound?
Answer: enhances U937 sensitivity to Compound D

Question: What about the “response after ILF2 or ILF3 knockout” value ([3]; U937 and OCI-AML2) of the same compound?
Answer: led to Compound D resistance
